Laboratory results as given in patent US12636366B2, “Ruthenium (II) complexes and conjugates thereof for use as photosensitizer agent in photodynamic therapy” (Paris Sciences et Lettres, priority 2019, dated 2026).
One block for each compound: values may come before it.

Columns and labels:
[1] = cited from earlier work
Cys-34 residue of HSA = Cys-34 residue of HSA (Homo sapiens, UniProt P02768)
Description: UV-visible (UV-Vis) spectrophotometry was monitored on an Agilent Cary 8454 diode array spectrophotometer in the wavelength range between 190 and 1100 nm.
Interaction of complex 12 at the Cys-34 residue of HSA was investigated spectrophotometrically via the dithiodipyridine (DTDP) method described previously (Pichler et al., 2013). […] A first series of UV-Vis spectra (a) were recorded before addition of 110 μM DTDP and a second series of UV-Vis spectra (b) were recorded after addition of 110 μM DTDP and after another 40 min waiting. […] Blank experiment with compound 13 was carried out as well as a control experiment. The effect of protein unfolding on the thiol binding of complex 12 was studied by the addition of 0.5% (m/m) SDS to the protein prior to its reaction with the complex. This experiment allows to determine the amount of free Cys-34 residue of HSA as a function of the added equivalent of the complexes.

Cys-34 residue of HSA, sequence (P02768 25-609): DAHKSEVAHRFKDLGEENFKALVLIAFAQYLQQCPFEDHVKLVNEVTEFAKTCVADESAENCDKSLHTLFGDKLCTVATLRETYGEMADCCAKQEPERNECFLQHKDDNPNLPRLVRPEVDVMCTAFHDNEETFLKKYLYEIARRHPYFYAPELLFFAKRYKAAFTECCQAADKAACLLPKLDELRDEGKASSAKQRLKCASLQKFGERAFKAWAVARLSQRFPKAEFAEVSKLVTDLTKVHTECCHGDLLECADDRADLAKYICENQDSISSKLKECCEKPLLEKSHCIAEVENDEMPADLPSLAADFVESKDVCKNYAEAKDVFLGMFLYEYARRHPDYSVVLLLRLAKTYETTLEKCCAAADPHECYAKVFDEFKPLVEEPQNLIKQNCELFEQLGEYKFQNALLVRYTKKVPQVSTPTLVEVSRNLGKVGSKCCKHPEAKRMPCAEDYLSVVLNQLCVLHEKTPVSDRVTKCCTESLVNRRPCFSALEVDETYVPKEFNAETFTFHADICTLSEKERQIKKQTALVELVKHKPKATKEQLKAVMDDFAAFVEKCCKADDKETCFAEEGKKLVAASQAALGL

Compound: [Cl-].[Cl-].[Ru+2].c1ccc(-c2ccccn2)nc1.c1ccc(-c2ccccn2)nc1.c1ccc(-c2ccccn2)nc1 [[Ru(bipy)3]Cl2]
Φ(1O2) of reference in D2O / water ([1]; solution in D2O / water): 0.22

Compound: O=C1C=Cc2cccc3cccc1c23 [phenalenone]
Φ(1O2) of reference in CH3CN ([1]; solution in CH3CN): 0.95

Compound: Cc1ccnc(-c2cc(C)ccn2)c1.[Cl-].[Cl-].[Ru+2].c1ccc(-c2ccnc3c2ccc2c(-c4ccccc4)ccnc23)cc1.c1ccc(-c2ccnc3c2ccc2c(-c4ccccc4)ccnc23)cc1 [Compound 13, (4,4′-Dimethyl-2,2′-bipyridine)bis(4,7-diphenyl-1,10-phenanthroline)ruthenium(II) dichlorine]
Interaction with Cys-34 thiol group (free thiol content) of native HSA (Cys-34 residue of HSA; 133 μM HSA, 0-120 μM complex, 3 h or 30 min, pH=7.00 (PBS)): affects barely the quantity of free thiol groups

Interaction with Cys-34 thiol group of unfolded HSA (Cys-34 residue of HSA; 0.5% SDS as denaturing agent, 0.5 h incubation): nearly quantitative interaction | Effect of incubation time on Cys-34 interaction (Cys-34 residue of HSA; 3 h versus 30 min incubation with HSA): did not result in remarkable differences
Compound: [Ru(bphen)2(Me-maleimidemethyl)](Cl)2 [Compound 12]
